Activity calls are given as the source filed them.

Assay [1] concerns the target Inhibitor of nuclear factor kappa-B kinase subunit alpha (Homo sapiens, UniProt O15111). Type of assay: functional.
Assay [2] addresses Mitogen-activated protein kinase kinase kinase 20 (Homo sapiens, UniProt Q9NYL2). It is filed as functional.
Assay [3] deals with Serine/threonine-protein kinase D2 (Homo sapiens, UniProt Q9BZL6). It is filed as functional.
Assay [4] deals with Casein kinase I isoform gamma-1 (Homo sapiens, UniProt Q9HCP0). Type of assay: functional.
Casein kinase I isoform gamma-1, sequence (Q9HCP0 whole entry, canonical isoform): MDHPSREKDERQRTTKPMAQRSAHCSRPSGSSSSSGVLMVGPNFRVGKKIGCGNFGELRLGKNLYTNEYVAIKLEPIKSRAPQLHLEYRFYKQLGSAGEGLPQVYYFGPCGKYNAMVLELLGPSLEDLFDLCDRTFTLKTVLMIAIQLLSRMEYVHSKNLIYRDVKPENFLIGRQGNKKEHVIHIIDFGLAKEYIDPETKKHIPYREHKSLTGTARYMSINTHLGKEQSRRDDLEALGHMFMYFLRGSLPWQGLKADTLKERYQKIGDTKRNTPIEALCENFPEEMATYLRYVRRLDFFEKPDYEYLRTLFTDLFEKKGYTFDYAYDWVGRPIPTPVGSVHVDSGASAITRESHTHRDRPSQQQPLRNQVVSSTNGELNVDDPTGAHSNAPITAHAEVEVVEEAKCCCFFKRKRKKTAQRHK
In assay [5] the target is MAP/microtubule affinity-regulating kinase 3 (Homo sapiens, UniProt P27448). Type of assay: functional.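 Also: MARK3 affinity measured as one member of a kinome panel.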
MAP/microtubule affinity-regulating kinase 3, sequence (P27448 whole entry): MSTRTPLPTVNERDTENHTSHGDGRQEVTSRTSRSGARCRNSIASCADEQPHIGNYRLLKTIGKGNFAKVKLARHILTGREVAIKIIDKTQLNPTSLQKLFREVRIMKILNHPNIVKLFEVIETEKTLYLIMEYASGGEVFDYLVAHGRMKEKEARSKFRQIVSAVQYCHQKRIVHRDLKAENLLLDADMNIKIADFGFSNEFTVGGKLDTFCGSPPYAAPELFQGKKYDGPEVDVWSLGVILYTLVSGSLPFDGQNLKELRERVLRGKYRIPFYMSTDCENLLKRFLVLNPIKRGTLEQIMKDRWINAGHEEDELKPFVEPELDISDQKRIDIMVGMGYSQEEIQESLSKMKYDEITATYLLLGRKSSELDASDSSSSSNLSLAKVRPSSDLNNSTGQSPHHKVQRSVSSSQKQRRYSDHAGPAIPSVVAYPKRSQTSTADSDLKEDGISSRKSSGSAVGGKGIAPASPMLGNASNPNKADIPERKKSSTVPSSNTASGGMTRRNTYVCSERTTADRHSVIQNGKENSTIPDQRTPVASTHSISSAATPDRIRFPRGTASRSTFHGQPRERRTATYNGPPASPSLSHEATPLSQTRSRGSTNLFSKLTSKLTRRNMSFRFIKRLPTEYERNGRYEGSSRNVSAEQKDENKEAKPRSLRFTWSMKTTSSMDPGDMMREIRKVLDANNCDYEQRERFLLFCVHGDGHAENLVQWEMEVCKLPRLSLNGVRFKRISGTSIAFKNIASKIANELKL
Assay [6] addresses Mast/stem cell growth factor receptor Kit (Homo sapiens, UniProt P10721). Type of assay: functional.
Assay [7] concerns the target 5-hydroxytryptamine receptor 5A (Homo sapiens, UniProt P47898). Briefly: Counterscreen for agonists of OPRM1-OPRD1 heterodimerization: luminescence-based cell-based high throughput dose response assay to identify agonists of 5-hydroxytryptamine (serotonin) 5A receptor (HTR5A). [Related pubchem assays (depositor defined):AID504326, AID504355, AID504692, AID504904, AID504905]. Type of assay: functional. Background: The purpose of a counterscreen is to sort out artefacts and off-target activity.

The target in assay [8] is Caspase-8 (Homo sapiens, UniProt Q14790). Description: caspase-8 inhibition counter-screen, dose response, selectivity assay for caspase-6 inhibitor project, biochemical, Z-IETD-R110 fluorescence, cherry-picked samples (AID 743294).
Caspase-8, sequence (Q14790 217-374 limits assumed): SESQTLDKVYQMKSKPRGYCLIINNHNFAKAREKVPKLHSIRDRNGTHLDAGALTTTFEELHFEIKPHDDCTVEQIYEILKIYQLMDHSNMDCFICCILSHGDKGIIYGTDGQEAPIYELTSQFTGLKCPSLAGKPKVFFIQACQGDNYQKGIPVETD
Caspase-8, sequence (Q14790 385-479 limits assumed): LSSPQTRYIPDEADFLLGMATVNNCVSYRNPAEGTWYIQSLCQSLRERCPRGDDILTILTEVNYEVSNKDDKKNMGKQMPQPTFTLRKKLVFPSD
For assay [9], the target named is Serine/threonine-protein phosphatase PP1-alpha catalytic subunit (Homo sapiens, UniProt P62136). Briefly: PP1 phosphatase inhibitors, dose response, biochemical, fluorescence (AID 2394).
Serine/threonine-protein phosphatase PP1-alpha catalytic subunit, sequence (P62136 whole entry): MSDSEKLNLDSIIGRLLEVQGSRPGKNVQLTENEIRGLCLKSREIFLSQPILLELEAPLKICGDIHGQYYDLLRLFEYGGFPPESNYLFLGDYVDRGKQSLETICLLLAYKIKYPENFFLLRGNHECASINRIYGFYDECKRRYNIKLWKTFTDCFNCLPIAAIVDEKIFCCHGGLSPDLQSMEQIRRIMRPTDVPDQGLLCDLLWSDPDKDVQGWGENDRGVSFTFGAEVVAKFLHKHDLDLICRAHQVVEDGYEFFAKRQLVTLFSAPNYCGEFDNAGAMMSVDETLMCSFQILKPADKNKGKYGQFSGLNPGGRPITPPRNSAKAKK
Assay [10] addresses T1, Apoptotic protease-activating factor 1 (Homo sapiens, UniProt O14727).
T1 sequence (O14727 whole entry): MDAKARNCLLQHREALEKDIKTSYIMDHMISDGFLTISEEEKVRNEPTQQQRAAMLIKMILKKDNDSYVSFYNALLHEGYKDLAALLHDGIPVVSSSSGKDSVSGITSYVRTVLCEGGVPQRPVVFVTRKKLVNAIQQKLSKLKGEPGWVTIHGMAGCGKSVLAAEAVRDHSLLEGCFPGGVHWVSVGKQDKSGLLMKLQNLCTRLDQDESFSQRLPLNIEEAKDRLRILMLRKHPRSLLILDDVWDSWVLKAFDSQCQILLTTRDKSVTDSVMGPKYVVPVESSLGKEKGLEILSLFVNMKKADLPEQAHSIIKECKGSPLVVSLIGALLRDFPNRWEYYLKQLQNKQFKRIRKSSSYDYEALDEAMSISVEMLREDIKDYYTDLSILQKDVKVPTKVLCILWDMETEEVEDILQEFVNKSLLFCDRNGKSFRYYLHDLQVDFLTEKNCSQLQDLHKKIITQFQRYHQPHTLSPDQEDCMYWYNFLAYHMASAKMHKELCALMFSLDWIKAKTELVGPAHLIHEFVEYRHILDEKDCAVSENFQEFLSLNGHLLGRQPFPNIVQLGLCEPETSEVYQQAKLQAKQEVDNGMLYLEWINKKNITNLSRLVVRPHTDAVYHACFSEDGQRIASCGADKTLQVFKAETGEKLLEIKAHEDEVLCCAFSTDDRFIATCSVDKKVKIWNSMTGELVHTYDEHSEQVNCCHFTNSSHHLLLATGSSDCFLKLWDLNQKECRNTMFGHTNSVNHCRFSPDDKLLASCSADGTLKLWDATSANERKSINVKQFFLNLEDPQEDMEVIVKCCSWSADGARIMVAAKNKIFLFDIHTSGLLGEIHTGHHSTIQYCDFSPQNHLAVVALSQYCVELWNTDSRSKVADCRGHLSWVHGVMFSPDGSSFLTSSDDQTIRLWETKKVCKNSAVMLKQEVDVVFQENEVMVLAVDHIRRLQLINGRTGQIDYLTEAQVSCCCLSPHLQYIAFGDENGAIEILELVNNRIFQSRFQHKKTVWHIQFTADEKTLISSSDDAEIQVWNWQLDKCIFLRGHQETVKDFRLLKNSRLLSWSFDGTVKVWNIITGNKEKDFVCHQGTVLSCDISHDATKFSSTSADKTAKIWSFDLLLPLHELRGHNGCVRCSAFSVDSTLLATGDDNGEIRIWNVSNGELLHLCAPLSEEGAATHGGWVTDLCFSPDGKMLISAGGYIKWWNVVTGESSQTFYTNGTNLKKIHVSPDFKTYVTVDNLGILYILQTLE
Type of assay: functional.

Serine/threonine-protein kinase D2, sequence (Q9BZL6 whole entry, canonical isoform): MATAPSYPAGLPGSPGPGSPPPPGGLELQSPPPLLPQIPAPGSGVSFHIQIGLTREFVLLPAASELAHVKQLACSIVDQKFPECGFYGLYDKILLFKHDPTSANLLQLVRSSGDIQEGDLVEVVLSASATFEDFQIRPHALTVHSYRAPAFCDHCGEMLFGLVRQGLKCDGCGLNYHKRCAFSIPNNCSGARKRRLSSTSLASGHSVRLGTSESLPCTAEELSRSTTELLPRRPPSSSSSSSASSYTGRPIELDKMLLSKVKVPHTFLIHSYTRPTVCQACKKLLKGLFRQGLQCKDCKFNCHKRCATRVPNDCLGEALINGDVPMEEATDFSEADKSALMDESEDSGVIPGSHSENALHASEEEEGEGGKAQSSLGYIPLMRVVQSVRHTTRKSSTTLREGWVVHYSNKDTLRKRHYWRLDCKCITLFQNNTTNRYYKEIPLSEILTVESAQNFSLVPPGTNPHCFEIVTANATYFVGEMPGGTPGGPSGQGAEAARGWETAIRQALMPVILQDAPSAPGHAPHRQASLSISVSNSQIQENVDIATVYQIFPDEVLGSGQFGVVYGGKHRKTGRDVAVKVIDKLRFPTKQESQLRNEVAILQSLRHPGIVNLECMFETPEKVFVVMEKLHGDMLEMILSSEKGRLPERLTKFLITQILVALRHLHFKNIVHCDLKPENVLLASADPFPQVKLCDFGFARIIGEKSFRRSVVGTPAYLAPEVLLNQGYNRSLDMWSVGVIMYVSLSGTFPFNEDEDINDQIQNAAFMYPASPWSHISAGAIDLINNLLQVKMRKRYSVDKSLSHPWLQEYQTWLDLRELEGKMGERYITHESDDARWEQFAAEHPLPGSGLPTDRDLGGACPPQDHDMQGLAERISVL
Inhibitor of nuclear factor kappa-B kinase subunit alpha, sequence (O15111 whole entry): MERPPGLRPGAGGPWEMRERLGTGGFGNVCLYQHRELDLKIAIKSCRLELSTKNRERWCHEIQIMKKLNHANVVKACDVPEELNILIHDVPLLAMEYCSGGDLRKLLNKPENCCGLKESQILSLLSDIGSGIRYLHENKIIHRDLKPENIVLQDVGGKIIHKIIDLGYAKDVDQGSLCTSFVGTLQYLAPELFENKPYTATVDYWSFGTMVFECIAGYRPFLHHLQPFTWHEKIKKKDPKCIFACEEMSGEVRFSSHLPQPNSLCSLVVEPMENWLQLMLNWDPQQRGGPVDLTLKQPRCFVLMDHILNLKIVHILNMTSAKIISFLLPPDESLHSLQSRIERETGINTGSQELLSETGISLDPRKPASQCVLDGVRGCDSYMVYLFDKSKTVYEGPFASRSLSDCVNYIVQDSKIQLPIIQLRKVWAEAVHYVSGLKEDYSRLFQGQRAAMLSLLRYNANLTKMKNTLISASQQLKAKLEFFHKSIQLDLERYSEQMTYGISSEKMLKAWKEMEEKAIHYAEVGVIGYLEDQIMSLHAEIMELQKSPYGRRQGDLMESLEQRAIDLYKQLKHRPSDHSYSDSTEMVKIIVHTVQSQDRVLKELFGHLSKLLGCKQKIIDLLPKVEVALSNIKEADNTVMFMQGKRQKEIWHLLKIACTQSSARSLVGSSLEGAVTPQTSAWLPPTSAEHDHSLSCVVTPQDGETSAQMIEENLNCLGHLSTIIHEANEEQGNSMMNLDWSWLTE
Mast/stem cell growth factor receptor Kit, sequence (P10721 whole entry): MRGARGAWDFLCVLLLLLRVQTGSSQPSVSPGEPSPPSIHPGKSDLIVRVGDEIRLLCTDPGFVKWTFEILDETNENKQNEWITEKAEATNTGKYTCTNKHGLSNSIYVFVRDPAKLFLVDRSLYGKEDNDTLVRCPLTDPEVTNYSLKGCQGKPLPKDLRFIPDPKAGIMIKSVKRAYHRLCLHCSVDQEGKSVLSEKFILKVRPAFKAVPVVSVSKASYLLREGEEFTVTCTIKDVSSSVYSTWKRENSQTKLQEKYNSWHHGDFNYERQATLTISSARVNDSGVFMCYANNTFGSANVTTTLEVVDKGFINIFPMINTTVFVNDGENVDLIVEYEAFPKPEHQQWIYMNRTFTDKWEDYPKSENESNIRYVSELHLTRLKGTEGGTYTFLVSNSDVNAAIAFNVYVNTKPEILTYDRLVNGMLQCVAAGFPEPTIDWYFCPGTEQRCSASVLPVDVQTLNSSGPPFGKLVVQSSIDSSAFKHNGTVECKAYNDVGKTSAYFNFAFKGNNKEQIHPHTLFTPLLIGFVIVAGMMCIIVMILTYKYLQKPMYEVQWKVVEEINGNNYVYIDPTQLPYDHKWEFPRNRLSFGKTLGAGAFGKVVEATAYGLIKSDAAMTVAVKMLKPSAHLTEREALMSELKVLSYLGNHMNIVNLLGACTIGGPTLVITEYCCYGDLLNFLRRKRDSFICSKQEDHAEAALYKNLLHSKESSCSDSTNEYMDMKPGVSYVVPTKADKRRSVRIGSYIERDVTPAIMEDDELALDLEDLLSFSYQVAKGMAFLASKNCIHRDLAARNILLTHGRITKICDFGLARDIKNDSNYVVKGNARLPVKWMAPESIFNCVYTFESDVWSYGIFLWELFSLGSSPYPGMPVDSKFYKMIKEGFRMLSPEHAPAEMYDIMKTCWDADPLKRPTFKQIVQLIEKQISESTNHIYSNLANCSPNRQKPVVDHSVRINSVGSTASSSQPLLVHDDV
5-hydroxytryptamine receptor 5A, sequence (P47898 whole entry): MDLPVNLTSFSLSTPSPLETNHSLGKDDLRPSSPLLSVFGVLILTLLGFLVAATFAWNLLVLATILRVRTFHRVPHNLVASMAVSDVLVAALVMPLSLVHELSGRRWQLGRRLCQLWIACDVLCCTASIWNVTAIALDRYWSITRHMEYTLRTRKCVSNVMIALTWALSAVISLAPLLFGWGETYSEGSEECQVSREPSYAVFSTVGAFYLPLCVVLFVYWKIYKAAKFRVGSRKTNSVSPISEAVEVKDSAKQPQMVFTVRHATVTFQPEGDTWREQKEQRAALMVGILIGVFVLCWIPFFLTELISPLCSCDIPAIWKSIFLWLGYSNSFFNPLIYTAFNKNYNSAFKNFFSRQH

As for `COc1cc2ncn(-c3cc(OCc4ccccc4C(F)(F)F)c(C(N)=O)s3)c2cc1OC` [GW843682X], the Ki – broadly, the equilibrium dissociation constant of an inhibitor or competing ligand from its target – in assay [1] was > 3.98 µM (inactive); in assay [2], > 7.94 µM (inactive); in assay [3] it was > 10 µM (inactive); in assay [4], > 6.31 µM (inactive); in assay [5], > 6.31 µM (inactive); in [6] it was 0.126 µM (active).

Turning to `CCCc1nc2c(=O)n(C)c(=O)nc-2n(C)n1`, the EC50 (in general, the concentration giving half of the maximal effect) in assay [7] is > 92.5 µM (inactive). In addition, the half-maximal activity concentration (AC50) (in general, the concentration giving half of the maximal activity seen) in assay [8] is 0.31 µM (active).

As for `CC(=O)c1ccc(NC2=C(N3CCOCC3)C(=O)c3ccccc3C2=O)cc1`, the IC50 (in general, the concentration at which inhibition is half-maximal) in [9] is > 67 µM (not active); in assay [10] it was 28.7 µM (active).

The values are drawn from ChEMBL document CHEMBL1201862, “PubChem BioAssay data set” (2004).
